In assay [1] the target is T1, IRP1 (Mus musculus, UniProt P28271).
T1 sequence (P28271 1-889): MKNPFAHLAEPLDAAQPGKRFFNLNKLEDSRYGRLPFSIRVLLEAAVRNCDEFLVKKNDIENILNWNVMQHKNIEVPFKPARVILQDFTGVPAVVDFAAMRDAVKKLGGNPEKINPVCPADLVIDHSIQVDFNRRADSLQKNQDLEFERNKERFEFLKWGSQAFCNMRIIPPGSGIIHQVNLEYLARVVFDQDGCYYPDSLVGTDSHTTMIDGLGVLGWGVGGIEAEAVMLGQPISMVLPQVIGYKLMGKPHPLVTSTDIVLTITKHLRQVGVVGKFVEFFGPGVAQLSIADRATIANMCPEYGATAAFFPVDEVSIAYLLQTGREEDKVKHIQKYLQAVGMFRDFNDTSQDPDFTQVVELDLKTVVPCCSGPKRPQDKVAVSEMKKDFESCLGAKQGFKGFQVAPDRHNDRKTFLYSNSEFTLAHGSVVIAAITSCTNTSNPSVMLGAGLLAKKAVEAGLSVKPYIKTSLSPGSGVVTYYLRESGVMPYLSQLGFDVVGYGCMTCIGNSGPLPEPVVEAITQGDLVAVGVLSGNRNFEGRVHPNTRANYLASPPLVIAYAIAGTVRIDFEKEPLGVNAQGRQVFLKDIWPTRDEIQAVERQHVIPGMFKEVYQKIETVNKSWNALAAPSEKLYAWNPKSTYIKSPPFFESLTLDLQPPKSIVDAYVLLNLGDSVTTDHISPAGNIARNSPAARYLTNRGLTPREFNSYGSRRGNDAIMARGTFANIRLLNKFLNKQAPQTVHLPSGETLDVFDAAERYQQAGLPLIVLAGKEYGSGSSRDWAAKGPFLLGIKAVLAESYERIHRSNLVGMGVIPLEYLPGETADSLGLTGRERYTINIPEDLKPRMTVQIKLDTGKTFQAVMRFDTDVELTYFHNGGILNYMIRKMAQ
The assay can be described thus: Gel-shift of IRP1 in wild type and IRP2−/− mouse embryonic fibroblasts after Tempo1 or DFO and washout. In kind it is cell-based. The arrangement: Embryonic fibroblasts of 13-day old embryos were isolated from wild type, IRP1−/− mice and IRP2−/− mice; endogenous in cells; host or cells: mouse embryonic fibroblasts (wild type and IRP2−/−). The procedure: Cells: Embryonic fibroblasts of 13-day old embryos were isolated from wild type, IRP1−/− mice and IRP2−/− mice as described in LaVaute et al. supra. Myc-tagged HEK 293 Tet-on cell line, in which IRP2 expression was inducible, was prepared and cultured as described Bourdon et al., Blood Cells Mol Dis, 31, 247-255 (2003). Erythroblasts were harvested from bone marrow and purified as described in Cooperman et al., Blood, 106, 1084-1091 (2005).
RNA mobility shift assays: Gel retardation assays were performed as described in Meyron-Holtz et al., EMBO J, 23, 386-395 (2004). Tissue lysates were prepared in an anaerobic chamber as described above in oxygen-depleted lysis buffer containing 10 mM HEPES (pH 7.2), 3 mM MgC12, 40 mM KCl, 5% glycerol, 0.2% Nonidet P-40, 5 mM DTT, 1 mM AEBSF, 10 μg/ml. Leupeptin and complete TM EDTA free protease inhibitor cocktail (Roche Applied Science, Indiana). Lysate (x μl) containing 10 μg of total protein was added to (12.5−x) μl of bandshift buffer containing 25 mM Tris-HCl (pH 7.5) and 40 mM KCl. The samples were incubated for 5 min at room temperature (RT) with 12.5 μl of a reaction cocktail containing 20% glycerol, 0.2 U/μl Super RNAsine (Ambion, Tex.), 0.6 μg/μl yeast t-RNA, 5 mM DTT and 20 nM 32P-labelled IRE from human ferritin H-chain gene in 25 mM Tris-HCl (pH 7.5) and 40 mM KCl. A measure of 20 μl of this reaction mixture was loaded into a 10% acrylamide/TBE gel, which was run at 200 V for 2.15 h, and then the gel was fixed, dried and exposed for autoradiography.
To determine whether the effect of Tempo1 on IRP1 activity was kinetically consistent with oxidative disassembly of the iron sulfur cluster, the effect of Tempo1 on aconitase activity was compared to that of the iron chelator, deferiprone (DFO), which activates IRE-binding activity of IRP1 by limiting de novo synthesis and repair of the iron sulfur cluster in IRP1. […] Recovery of aconitase activity was assessed in wild type and IRP2−/− cells.

The test system of assay [2] is ferritin. The assay can be described thus: Immunohistochemistry of ferritin in hippocampus and cortex. Particulars: hippocampus and cortex of IRP2−/− mice. It counts as in vivo. The procedure: (§1) Diet: The mice were weaned 3-4 weeks after their birth. Immediately after weaning, mice were maintained on either a Tempo1-supplemented or control diet. In the Tempo1-supplemented diet, powdered Tempo1 was uniformly mixed with bacon-flavored mouse chow by a “cold press” technique (Bio-Serv, Frenchtown, N.J., USA) at a concentration of 10 mg/g of food. Bacon-flavored chow without Tempo1 was used as the control diet.
Immunohistochemistry: Paraffin-embedded tissue sections were boiled in a micro oven for 15 min for antigen retrieval in 10 mM citrate buffer pH 6.4 after dewaxing and rehydrating. The sections were blocked in blocking buffer (Tris-buffered saline pH 7.4, 5% nomial goat serum, 0.1% Tween-20) for 30 min, then were incubated with polyclonal rabbit anti-ferritin antibody for 2 h at room temperature, the protein-antibody complex was labeled by CY3-donkey anti-rabbit antibody (Jackson ImmunoResearch Laboratories, Inc., West Grove, Pa.), nuclei were labeled by DAPI as counterstaining. The slides were observed and the pictures were recorded with Nikon Eclipse E600 fluorescence microscope.
Immunohistochemical studies were performed to analyze ferritin expression in the hippocampus and cortexregions of the mouse brains. […] The overexpression of ferritin decreased with Tempo1 treatment.

The subject of assay [3] is IRP2−/− mice. The assay can be described thus: Hematocrit (anemia) of IRP2−/− mice on Tempo1 diet. In kind it is in vivo. The procedure:
as §1

For the molecule `CC1(C)CC(O)CC(C)(C)N1[O]` [Tempo1], the “time to reversal of the activation of IRE-binding activity after removal” value in assay [1] (mouse embryonic fibroblasts, 16 hours treatment, then fresh unsupplemented media) was at most 2 h. The “IRE-binding activity of IRP1” value in assay [1] (wild type and IRP2−/− mouse embryonic fibroblasts treated 16 hours) is given as “activated”. Further, in assay [2], the overexpression of ferritin entry was “decreased”. In assay [3] (IRP2−/− mice after 8 months of Tempo1 diet (untreated IRP2−/− 46±5, WT 52±2)), this molecule returned a hematocrit of 46±4. For the same molecule, the “mild anemia of IRP2−/− mice” value in assay [3] (IRP2−/− mice treated with Tempo1) is given as “did not improve”.

The values are drawn from patent US20100179188A1, “NITROXIDE RADICAL AS TREATMENT FOR NEURODEGENERATION” (Office of Technology Transfer, NIH, priority 2007, published 2010).
